Results as given in patent US20130203790A1, “SULFUR-CONTAINING COMPOUNDS AS ANTI-PROLIFERATIVE AGENTS” (221076 ONTARIO INC., priority 2011, published 2013).

Legend:
[1] = test system: platelets in whole blood (ADP, collagen and TRAP agonists); experiment: Platelet inhibition assay in whole blood (impedance platelet aggregometry, Multiplate System); assay type: cell-based, human; conditions: for dose dependence of the response in whole blood / reduction in response to agonists in whole blood (anti-platelet effect): all agonists; for dose dependence of the response in whole blood: 10-100 μM; for reduction in response to agonists in whole blood (anti-platelet effect): compound 10-100 μM
Description: (§1) Platelet function studies were performed simultaneously in both whole blood (using whole blood impedance platelet aggregometry with a Multiplate System) and platelet rich plasma (light transmission aggregometry with a Chrono-Log System). Blood was collected from healthy individuals into vacutainers containing 3.2% (w/v) citrate and was used within 3 hours of collection. Platelet rich plasma (“PRP”) was prepared by centrifugation at 170 g for 15 minutes, and the platelet count measured and adjusted to 250×109/L for use in the light transmission aggregometry studies.
(§2) Each compound was tested at final concentrations of 10, 25, 50 and 100 μM. For each test, the compound was diluted 1/100 into the PRP or whole blood to obtain the final concentrations listed. The PRP or whole blood sample was allowed to stir in the aggregometer for 3 minutes prior to agonist addition. One compound was tested each day.
(§3) As a positive control to verify the sensitivity to inhibition of thrombin receptor agonist peptide (TRAP)-mediated aggregation, TRAP-induced aggregations were also done in the presence of eptifibatide, a glycoprotein IIb/IIIa inhibitor (final concentration of 77 μg/mL in PRP and 65 μg/mL in whole blood).
(§4) Materials used included: • The four channel light transmission aggregometer instrument used for the platelet rich plasma studies was from Chrono-Log Corporation. • The ADP and collagen agonists used for platelet rich plasma studies were from Chrono-Log Corporation. • The four channel Multiplate whole blood impedance platelet aggregometer (IPA) was from DiaPharma Group. • The ADP and collagen agonists used for the whole blood studies were provided by DiaPharma Group. The TRAP agonist used in both the whole blood and PRP studies was also obtained from DiaPharma Group.

[2] = test system: platelets in platelet rich plasma (ADP, collagen and TRAP agonists); experiment: Platelet inhibition assay in platelet rich plasma (light transmission aggregometry, Chrono-Log System); assay type: cell-based, human; conditions: for inhibitory activity observed in PRP: any agonist tested (ADP, collagen, TRAP), compound 10, 25, 50 and 100 μM
Description: as §1, §2, §3, §4

[3] = molecular target: T1, t-PA (degradation of fibrin by tissue plasminogen activator) (Homo sapiens, UniProt P00750); experiment: Fibrinolysis assay, microtiter plate turbidity (clot lysis time); assay type: biochemical; conditions: 500 nM Glu-plasminogen
T1 construct: purchased Genentech
T1 sequence (P00750 36-562): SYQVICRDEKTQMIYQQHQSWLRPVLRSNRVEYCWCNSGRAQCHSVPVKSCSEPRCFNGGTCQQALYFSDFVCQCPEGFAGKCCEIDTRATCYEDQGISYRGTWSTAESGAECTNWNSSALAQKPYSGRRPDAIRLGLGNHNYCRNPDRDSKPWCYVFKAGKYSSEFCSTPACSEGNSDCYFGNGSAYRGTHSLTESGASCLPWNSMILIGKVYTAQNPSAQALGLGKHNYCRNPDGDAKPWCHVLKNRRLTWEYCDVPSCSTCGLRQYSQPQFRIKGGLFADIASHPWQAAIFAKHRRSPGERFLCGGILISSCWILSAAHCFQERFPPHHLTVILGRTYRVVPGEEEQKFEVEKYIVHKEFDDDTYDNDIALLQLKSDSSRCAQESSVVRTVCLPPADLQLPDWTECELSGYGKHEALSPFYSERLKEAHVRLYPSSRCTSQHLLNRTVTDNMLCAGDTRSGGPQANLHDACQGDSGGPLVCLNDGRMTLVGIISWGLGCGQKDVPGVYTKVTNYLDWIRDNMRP
Description: (§5) Coagulation and fibrinolysis were studied simultaneously in a 96-well microtiter plate-based assay system. Varying concentrations of drug in 50 μl buffer or an equivalent volume of saline were added to the wells. To this was added 100 μl of 6 μM fibrinogen, 1 μM Glu-plasminogen and 4 mM CaCl2. Reactions were initiated by addition of 50 μl of buffer containing 2 nM t-PA and 20 nM thrombin. Final concentrations of reagents in the wells were 3 μM fibrinogen, 500 nM Glu-plasminogen, 2 mM CaCl2, 0.05 nM t-PA, 5 nM thrombin and compounds of Formulas (II), (Ill), (IV) or (V) (0-400 μM). As positive controls, hirudin or D-Phe-Pro-Arg chloromethylketone (PPACK) was used in place of the subject compounds. Plates were incubated at 23° C. for 1 h with constant shaking and turbidity was monitored continuously at 405 nm. Clot times and lysis times were determined using instrument soft wave as the times to half maximal increase and decrease in turbidity, respectively. Data are expressed as the mean±SEM of three experiments, each done in triplicate.

[4] = molecular target: T2, thrombin (thrombin-mediated conversion of fibrinogen to fibrin) (Homo sapiens, UniProt P00734); experiment: Coagulation assay, microtiter plate turbidity (clot formation, thrombin clot time); assay type: biochemical
T2 construct: purchased Enzyme Research Laboratories
Description: as §5, with “[…] […]” for “Final concentrations of reagents in the wells were 3 μM fibrinogen, 500 nM Glu-plasminogen, 2 mM CaCl2, 0.05 nM t-PA, 5 nM thrombin and compounds of Formulas (II), (Ill), (IV) or (V) (0-400 μM). As positive controls, hirudin or D-Phe-Pro-Arg chloromethylketone (PPACK) was used in place of the subject compounds.”

[5] = tested at 0-100 nM, 5 nM thrombin

effect on clot lysis times [3]	Molecule	dose dependence of the response in whole blood [1]	inhibitory activity observed in PRP [2]	reduction in response to agonists in whole blood (anti-platelet effect) [1]	also measured
	2-methyldisulfanyl-pyrimidine [2-methyldisulfanyl-pyrimidine (V)]	positive dose dependent inhibition			reduction of platelet response to all agonists in whole blood ([1]; 100 μM): approximately 50%; inhibitory activity observed in PRP at highest concentration ([2]; all agonists, highest concentration tested (100 μM)): surprising inhibitory activity
	CSSc1ccccn1 [2-methyldisulfanyl-pyridine (III), 2-methyldisulfanyl-pyridine]	does not appear to be dose dependent	no inhibitory activity		reduction in response to all agonists in whole blood ([1]; not dose dependent (10-100 μM)): ~25%
lysis times were shortened	D-Phe-Pro-Arg chloromethylketone [PPACK]				
	CSSc1ccc(N)cc1 [4-methyldisulfanyl-phenylamine (IV), 4-methyldisulfanyl-phenylamine]	does not appear to be dose dependent	no inhibitory activity	Some reduction in response to all agonists	
lysis times were shortened	hirudin				effect on clot formation and lysis profiles ([4]; compounds of the invention up to 400 μM, hirudin and PPACK as positive controls, 23° C., turbidity at 405 nm): inhibited clot formation and lysis; concentration causing complete inhibition of clotting [4, 5]: 25 nM; lowest concentration with measurable effect on clotting [4, 5]: 6.25 nM
	CSSc1ccncc1 [4-methyldisulfanyl-pyridine (II), 4-methyldisulfanyl-pyridine]	does not appear to be dose dependent	no inhibitory activity	reduction in response to all agonists	
